Paper PMC4184797, “The Structure, Stability and Pheromone Binding of the Male Mouse Protein Sex Pheromone Darcin” (PLoS ONE, 2014)

What was measured:
Type in all cases: binding
darcin [1] = target: T1, darcin (Mus musculus, UniProt Q5FW60); assay: 1H-15N HSQC NMR chemical shift perturbation
T1 construct: gene Mup20; N-terminal His6-tagged recombinant darcin (mature protein)
T1 sequence (Q5FW60 20-181): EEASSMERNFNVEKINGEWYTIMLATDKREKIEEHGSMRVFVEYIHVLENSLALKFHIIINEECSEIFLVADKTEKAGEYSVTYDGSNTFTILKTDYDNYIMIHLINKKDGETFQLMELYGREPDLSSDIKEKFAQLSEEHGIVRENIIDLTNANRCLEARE

MUP11 [2] = target: T2, MUP11 (Mus musculus, UniProt P04938); assay: 1H-15N HSQC NMR chemical shift perturbation
T2 construct: N-terminal His6-tagged recombinant MUP11 (mature protein)
T2 sequence (P04938 20-181): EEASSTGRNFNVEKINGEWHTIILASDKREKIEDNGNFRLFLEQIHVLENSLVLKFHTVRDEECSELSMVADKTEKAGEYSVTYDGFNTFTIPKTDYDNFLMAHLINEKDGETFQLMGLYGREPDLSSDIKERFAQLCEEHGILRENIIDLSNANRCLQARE

darcin [3] = target: T1, darcin; assay: ITC, one-site model, […] °C; also 1H-15N HSQC NMR titration
MUP11 [4] = target: T2, MUP11; assay: as above

Row | Kd (darcin [3]) [nM] | Kd (MUP11 [4]) [nM] | SMILES | 1H-15N HSQC NMR chemical shift perturbation (darcin [1]) | 1H-15N HSQC NMR chemical shift perturbation (MUP11 [2])
1 |  |  | CC1=CC(=O)c2ccccc2C1=O [K3, menadione] | The smaller ligands, K3 and SBT, bind to both darcin and MUP11 in the hydrophobic cavity of the beta barrel | The smaller ligands, K3 and SBT, bind to both darcin and MUP11 in the hydrophobic cavity of the beta barrel
2 | ~173 | ~2760 | CCC(C)c1nccs1 (stereo not shown) [SBT, 2-sec-butyl-thiazole] |  | 
